In patent EP2098223A1, “Compressed solid dosage form” (Teva Pharmaceutical Industries Ltd., priority 2004, dated 2006):
Structures can show the parent of a compound that is named as a salt.

Assay: Particle size distribution by laser light scattering (Malvern Mastersizer S)
Assay type: physicochemical
Conditions: mean equivalent spherical diameter; raloxifene hydrochloride used in Formulations 1-4
From the text: For example, in Formulations 1-4 below, d(0.5) = 38.8 µm and d(0.9) = 90.4 µm. All particle sizes herein refer to the mean equivalent spherical diameter measured by laser light scattering techniques. Thus, the notation "d(0.5) greater than about 35 µm" means that 50% of the particles by volume have a mean equivalent spherical diameter of more than about 35 µm, as measured by laser light scattering. The laser light scattering measurement instrument used to measure the particle size distributions in the Examples was a Malvern Mastersizer® S. The dissolution profile was generated by testing in either 900 mL or 2 L of a 0.1 % aqueous polysorbate 80 solution, using paddle apparatus (USP Apparatus II) at 50 rpm at 37°C.

d(0.5): 38.8 µm
d(0.9): 90.4 µm
Structure (SMILES): O=C(c1ccc(OCCN2CCCCC2)cc1)c1c(-c2ccc(O)cc2)sc2cc(O)ccc12 [raloxifene hydrochloride]
